Measurements: PubChem BioAssay (NCI)
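Where inhibition never reached the appropriate level, the endpoint shown equals the highest concentration tested. Otherwise, values were interpolated linearly from a five-concentration, 48-hour dose response in 96-well plates. At the GI50, growth is halved. Definition used: TGI = concentration required for complete inhibition of growth.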

Assays:
Assay in all cases: NCI anticancer screen, dose series, 48 h
UACC-62 melanoma = tested on: UACC-62 melanoma
CCRF-CEM leukemia = tested on: CCRF-CEM leukemia
NCI-H522 lung = tested on: NCI-H522 lung
IGROV1 ovarian = tested on: IGROV1 ovarian
HS 578T breast = tested on: HS 578T breast
SF-268 CNS = tested on: SF-268 CNS
MOLT-4 leukemia = tested on: MOLT-4 leukemia
SF-539 CNS = tested on: SF-539 CNS
SK-MEL-28 melanoma = tested on: SK-MEL-28 melanoma
MCF7 breast = tested on: MCF7 breast
SN12C renal = tested on: SN12C renal
SK-MEL-2 melanoma = tested on: SK-MEL-2 melanoma
SF-295 CNS = tested on: SF-295 CNS
RXF 393 renal = tested on: RXF 393 renal
MDA-MB-231 breast = tested on: MDA-MB-231 breast
COLO 205 colon = tested on: COLO 205 colon
CAKI-1 renal = tested on: CAKI-1 renal
EKVX NSCLC = tested on: EKVX NSCLC
PC-3 prostate = tested on: PC-3 prostate
MDA-MB-435 = tested on: MDA-MB-435
OVCAR-4 ovarian = tested on: OVCAR-4 ovarian
MALME-3M melanoma = tested on: MALME-3M melanoma
NCI/ADR-RES ovarian = tested on: NCI/ADR-RES ovarian
SK-MEL-5 melanoma = tested on: SK-MEL-5 melanoma
786-0 renal = tested on: 786-0 renal
HOP-62 NSCLC = tested on: HOP-62 NSCLC
A498 renal = tested on: A498 renal
U251 CNS = tested on: U251 CNS
SNB-75 CNS = tested on: SNB-75 CNS
RPMI-8226 leukemia = tested on: RPMI-8226 leukemia
SNB-19 CNS = tested on: SNB-19 CNS
HCC-2998 colon = tested on: HCC-2998 colon
LOX IMVI melanoma = tested on: LOX IMVI melanoma
UACC-257 melanoma = tested on: UACC-257 melanoma
NCI-H460 lung = tested on: NCI-H460 lung
HT29 colon = tested on: HT29 colon
HCT-116 colon = tested on: HCT-116 colon
UO-31 renal = tested on: UO-31 renal
HCT-15 colon = tested on: HCT-15 colon
OVCAR-8 ovarian = tested on: OVCAR-8 ovarian
SR leukemia = tested on: SR leukemia
SW-620 colon = tested on: SW-620 colon
BT-549 breast = tested on: BT-549 breast
HOP-92 NSCLC = tested on: HOP-92 NSCLC
KM12 colon = tested on: KM12 colon
DU-145 prostate = tested on: DU-145 prostate
A549 NSCLC = tested on: A549 NSCLC
OVCAR-5 ovarian = tested on: OVCAR-5 ovarian
NCI-H23 lung = tested on: NCI-H23 lung
NCI-H226 lung = tested on: NCI-H226 lung
TK-10 renal = tested on: TK-10 renal
ACHN renal = tested on: ACHN renal
SK-OV-3 ovarian = tested on: SK-OV-3 ovarian
HL-60(TB) leukemia = tested on: HL-60(TB) leukemia
T-47D breast = tested on: T-47D breast
M14 melanoma = tested on: M14 melanoma

CNC(=O)c1cc(-n2ccc3cc(NC(=O)Nc4ccc(N5CCN(C)CC5)c(C(F)(F)F)c4)ccc32)ccn1
GI50 (UACC-62 melanoma): 4.15 µM
TGI (UACC-62 melanoma): 8.22 µM
GI50 (CCRF-CEM leukemia): 2.54 µM
TGI (CCRF-CEM leukemia): 16 µM
GI50 (NCI-H522 lung): > 25 µM
TGI (NCI-H522 lung): > 25 µM
GI50 (IGROV1 ovarian): 4.12 µM
TGI (IGROV1 ovarian): 8.44 µM
GI50 (HS 578T breast): 2.03 µM
TGI (HS 578T breast): 7.26 µM
GI50 (SF-268 CNS): 3.3 µM
TGI (SF-268 CNS): 7.43 µM
GI50 (MOLT-4 leukemia): 0.744 µM
TGI (MOLT-4 leukemia): 2.91 µM
GI50 (SF-539 CNS): 1.2 µM
TGI (SF-539 CNS): 4.53 µM
GI50 (SK-MEL-28 melanoma): 2.96 µM
TGI (SK-MEL-28 melanoma): 6.38 µM
GI50 (MCF7 breast): 2.3 µM
TGI (MCF7 breast): 6.34 µM
GI50 (SN12C renal): 3.53 µM
TGI (SN12C renal): 7.56 µM
GI50 (SK-MEL-2 melanoma): 4.33 µM
TGI (SK-MEL-2 melanoma): 7.95 µM
GI50 (SF-295 CNS): 0.492 µM
TGI (SF-295 CNS): 1.11 µM
GI50 (RXF 393 renal): 0.633 µM
TGI (RXF 393 renal): 1.75 µM
GI50 (MDA-MB-231 breast): 3.48 µM
TGI (MDA-MB-231 breast): 7.81 µM
GI50 (COLO 205 colon): 4.21 µM
TGI (COLO 205 colon): 8.75 µM
GI50 (CAKI-1 renal): 4.15 µM
TGI (CAKI-1 renal): 8.3 µM
GI50 (EKVX NSCLC): 3.46 µM
TGI (EKVX NSCLC): 6.88 µM
GI50 (PC-3 prostate): 3.6 µM
TGI (PC-3 prostate): 9.56 µM
GI50 (MDA-MB-435): 3.67 µM
TGI (MDA-MB-435): 7.17 µM
GI50 (OVCAR-4 ovarian): 3.65 µM
TGI (OVCAR-4 ovarian): 8.62 µM
GI50 (MALME-3M melanoma): 3.2 µM
TGI (MALME-3M melanoma): 6.71 µM
GI50 (NCI/ADR-RES ovarian): 5.3 µM
TGI (NCI/ADR-RES ovarian): 13.7 µM
GI50 (SK-MEL-5 melanoma): 4.28 µM
TGI (SK-MEL-5 melanoma): 7.79 µM
GI50 (786-0 renal): 2.03 µM
TGI (786-0 renal): 5.31 µM
GI50 (HOP-62 NSCLC): 3.41 µM
TGI (HOP-62 NSCLC): 7.46 µM
GI50 (A498 renal): 3.61 µM
TGI (A498 renal): 7.07 µM
GI50 (U251 CNS): 2.43 µM
TGI (U251 CNS): 5.48 µM
GI50 (SNB-75 CNS): 1.2 µM
TGI (SNB-75 CNS): 4.98 µM
GI50 (RPMI-8226 leukemia): 0.886 µM
TGI (RPMI-8226 leukemia): 4.01 µM
GI50 (SNB-19 CNS): 3.49 µM
TGI (SNB-19 CNS): 7.23 µM
GI50 (HCC-2998 colon): 3.53 µM
TGI (HCC-2998 colon): 7.05 µM
GI50 (LOX IMVI melanoma): 2.68 µM
TGI (LOX IMVI melanoma): 5.95 µM
GI50 (UACC-257 melanoma): 3.97 µM
TGI (UACC-257 melanoma): 7.6 µM
GI50 (NCI-H460 lung): 4.1 µM
TGI (NCI-H460 lung): 8.4 µM
GI50 (HT29 colon): 0.938 µM
TGI (HT29 colon): 3.59 µM
GI50 (HCT-116 colon): 1.7 µM
TGI (HCT-116 colon): 4.87 µM
GI50 (UO-31 renal): 4.27 µM
TGI (UO-31 renal): 8.56 µM
GI50 (HCT-15 colon): 0.796 µM
TGI (HCT-15 colon): 3.48 µM
GI50 (OVCAR-8 ovarian): 4.27 µM
TGI (OVCAR-8 ovarian): 8.27 µM
GI50 (SR leukemia): 0.479 µM
TGI (SR leukemia): 2.85 µM
GI50 (SW-620 colon): 3.41 µM
TGI (SW-620 colon): 7.11 µM
GI50 (BT-549 breast): 2.7 µM
TGI (BT-549 breast): 5.75 µM
GI50 (HOP-92 NSCLC): 1.22 µM
TGI (HOP-92 NSCLC): 4.68 µM
GI50 (KM12 colon): 0.866 µM
TGI (KM12 colon): 3.88 µM
GI50 (DU-145 prostate): 3.97 µM
TGI (DU-145 prostate): 7.52 µM
GI50 (A549 NSCLC): 3.58 µM
TGI (A549 NSCLC): 7.36 µM
GI50 (OVCAR-5 ovarian): 3.57 µM
TGI (OVCAR-5 ovarian): 7.74 µM
GI50 (NCI-H23 lung): 3.87 µM
TGI (NCI-H23 lung): 8.32 µM
GI50 (NCI-H226 lung): > 25 µM
TGI (NCI-H226 lung): > 25 µM
GI50 (TK-10 renal): 4.39 µM
TGI (TK-10 renal): 8.16 µM
GI50 (ACHN renal): 3.85 µM
TGI (ACHN renal): 7.22 µM
GI50 (SK-OV-3 ovarian): 4.21 µM
TGI (SK-OV-3 ovarian): 7.75 µM
GI50 (HL-60(TB) leukemia): 1.44 µM
TGI (HL-60(TB) leukemia): 6.33 µM
GI50 (T-47D breast): 3.65 µM
TGI (T-47D breast): 9.08 µM
GI50 (M14 melanoma): 2.95 µM
TGI (M14 melanoma): 6.09 µM
